Legend:
[1] = system: Hep 3B; test: In vitro cytotoxicity, MTT assay, Hep 3B; assay type: cell-based; details: Homo sapiens, Hep3B, 72 h, read-out: IC50 ± SD
[2] = system: carboxylesterases; details: in the body, background statement; cited from earlier work
[3] = system: Hep 3B cells; test: Cell proliferation by EdU incorporation; assay type: cell-based, human; details: 2 μM SN38 equivalent, 24 h
[4] = system: human HCC PDX tumors; test: Antitumor activity in human HCC PDX tumor model; assay type: in vivo, Balb/c nude mice; details: i.v. x3
[5] = system: BEL-7402; test: In vitro cytotoxicity, MTT assay, BEL-7402; assay type: cell-based; details: Homo sapiens, Bel-7402, 72 h, read-out: IC50 ± SD
[6] = Bloody diarrhea and intestinal damage study; assay type: in vivo, Balb/c mice
[7] = Pharmacokinetics after single i.v. injection; details: Sprague-Dawley, rat, in vivo, iv, 12 mg/kg
[8] = clinical; cited from earlier work
[9] = Drug loading and encapsulation efficiency by RP-HPLC; assay type: physicochemical; details: PEG5k-PLA8k NPs, matrices/SN38 feed weight ratio 19:1, n = 3
[10] = system: advanced HCC; details: patients with advanced HCC; cited from earlier work

SMILES	IC50 [1] [µM]	Enzymatic conversion to SN38, share of dosed CPT-11 [2]	Effect on proliferation (EdU incorporation) [3]	Antitumor efficacy [4]	IC50 [5] [µM]	Large intestine histology (H&E) ([6]; day 9, healthy Balb/c mice)	Onset of bloody diarrhea ([6]; healthy Balb/c mice, CPT-11 22.5 mg/kg i.v. x3) [days]	AUC(0-inf) [7] [ng·h/mL]	AUC(0-t) [7] [ng·h/mL]	Cmax [7] [ng/mL]	Incidence of grade 3 or 4 diarrhea [8] [%]	EE (encapsulation efficiency) [9] [%]	Extension of median overall survival compared with a placebo [10] [months]
CCc1c2c(nc3ccc(OC(=O)N4CCC(N5CCCCC5)CC4)cc13)-c1cc3c(c(=O)n1C2)COC(=O)[C@]3(O)CC [CPT-11, irinotecan]	49.3 ± 3.3	less than 8%	negligible effect	moderate efficacy	42 ± 2.06	destruction of these tissues by eliminating the glands and causing diffuse mucosal damage	2	68900	67600	23800	31	–	–
CCc1c2c(nc3ccc(O)cc13)-c1cc3c(c(=O)n1C2)COC(=O)[C@]3(O)CC [SN38, 7-ethyl-10-hydroxycamptothecin]	7.74 ± 1.18	–	–	–	2.76 ± 0.16	–	–	–	–	–	–	< 5	–
CNC(=O)c1cc(Oc2ccc(NC(=O)Nc3ccc(Cl)c(C(F)(F)F)c3)cc2)ccn1 [sorafenib]	–	–	–	–	–	–	–	–	–	–	–	–	2.8

From PMC6071539 (Theranostics, 2018)
